Like-named read-outs stand apart in the source and are kept apart here.
Columns and labels:
Format in all cases: in vivo
[1] = system: Frankliniella occidentalis (Western Flower Thrips); assay: Activity against Frankliniella occidentalis (mixed population, contact/feeding), bean plants; conditions: 200 ppm; sprayed bean plants; 14 days after infestation
Method: Example B4: Activity Against Frankliniella occidentalis (Western Flower Thrips) (Mixed Population, Contact/Feeding)
Bean plants were treated with diluted test solutions in a spray chamber. After drying, plants were infested with a thrips population of mixed ages. 14 days after the infestation, samples were checked for damage reduction compare to the non treated samples.

[2] = system: Myzus persicae (Green Peach Aphid); assay: Activity against Myzus persicae (mixed population, feeding/residual contact activity, preventive), sunflower leaf discs; conditions: foliar, 144 h, read-out: activity (mortality)
Method: Sunflower leaf discs were placed on agar in a 24-well microtiter plate and sprayed with test solutions. After drying, the leaf discs were infested with an aphid population of mixed ages. After an incubation period of 6 days, samples were checked for mortality and special effects (e.g. phytotoxicity).

[3] = system: Myzus persicae (Green Peach Aphid); assay: Activity against Myzus persicae (mixed population, systemic/feeding activity, curative), pea seedlings; conditions: 144 h, pea seedling roots in test solution, 6 days after introduction
Excerpt: Example B2: Activity Against Myzus persicae (Green Peach Aphid) (Mixed Population, Systemic/Feeding Activity, Curative)
Pea seedlings, infested with an aphid population of mixed ages, were placed with the roots directly in the test solutions. 6 days after introduction, samples were checked for mortality and special effects on the plant.

[4] = system: Bemisia tabaci; assay: Activity against Bemisia tabaci (adults on cotton, contact, preventative); conditions: foliar, 168 h, sprayed cotton leaf discs, adult white flies, 7 DAT
Method: Example B3: Activity Against Bemisia tabaci, (Adults on Cotton, Contact, Preventative)
Cotton leaf discs are placed on agar in a 24-well microtiter plate and sprayed with test solutions. After drying, the leaf discs are infested with adult white flies. After an incubation period of 7 DAT, samples are checked for mortality and special effects (e.g. phytotoxicity).

[5] = 200 ppm, sprayed sunflower leaf discs, 6 days incubation

Row | SMILES | activity (damage reduction compared to non treated samples) [1] | mortality at 200 ppm [2, 5] | mortality at 24 ppm [3] | mortality at 200 ppm [4] | mortality at 200 ppm [2]
1 | Cc1cc(C(C)C#N)cnc1-n1ncc(C(=O)N(C)c2cccnc2)c1C (stereo not shown) [Compound 1.003, 1-[5-(1-cyanoethyl)-3-methyl-2-pyridyl]-N,5-dimethyl-N-(3-pyridyl)pyrazole-4-carboxamide] | over 80% | ≥ 80% |  |  | 
2 | Cc1cc(C(C)(C)C#N)cnc1-n1ncc(C(=O)N(C)c2cccnc2)c1C [Compound 1.004, 1-[5-(1-cyano-1-methyl-ethyl)-3-methyl-2-pyridyl]-N,5-dimethyl-N-(3-pyridyl)pyrazole-4-carboxamide] |  | ≥ 80% | > 80% |  | 
3 | CCOC(=O)C(CC)c1cnc(-n2ncc(C(=O)N(C)c3cccnc3)c2C)c(C)c1 (stereo not shown) [Compound 1.009] |  | ≥ 80% |  |  | 
4 | Cc1cc(C2(C#N)CC2)cnc1-n1ncc(C(=O)N(C)c2cccnc2)c1C [Compound 1.002, 1-[5-(1-cyanocyclopropyl)-3-methyl-2-pyridyl]-N,5-dimethyl-N-(3-pyridyl)pyrazole-4-carboxamide] |  | ≥ 80% | > 80% |  | 
5 | Cc1cc(/C(C#N)=N/O)cnc1-n1ncc(C(=O)N(C)c2cccnc2)c1C [Compound 1.007, 1-[5-[(Z)-C-cyano-N-hydroxy-carbonimidoyl]-3-methyl-2-pyridyl]-N,5-dimethyl-N-(3-pyridyl)pyrazole-4-carboxamide] |  | ≥ 80% | > 80% |  | 
6 | Cc1cc(CC#N)cnc1-n1ncc(C(=O)N(C)c2cccnc2)c1C [Compound 1.001, 1-[5-(cyanomethyl)-3-methyl-2-pyridyl]-N,5-dimethyl-N-(3-pyridyl)pyrazole-4-carboxamide] |  | ≥ 80% | > 80% | > 80% | 
7 | CCO/N=C(\C#N)c1cnc(-n2ncc(C(=O)N(C)c3cccnc3)c2C)c(C)c1 [Compound 1.008, (3E/Z)-N-ethoxy-5-methyl-6-[5-methyl-4-[methyl(3-pyridyl)carbamoyl]pyrazol-1-yl]pyridine-3-carboximidoyl cyanide] |  |  |  |  | ≥ 80%

Source: US9751862B2, “Pesticidally active substituted pyridyl carboxamides” (Syngenta Participations AG, priority 2014, dated 2017)
